Laboratory results taken from US10874670B2, “Substituted fused heteroaromatic compounds as kinase inhibitors and the use thereof” (IMPACT THERAPEUTICS, INC., priority 2017, dated 2020).

Columns and labels:
[1] = test system: human colon cancer cell SW620; experiment: MTT assay, growth of SW620 cells, compounds combined with CPT-11; format: cell-based; details: for IC50: combined with CPT-11 (205 nM medium), 5 days, MTT
Method: Inhibitory effects of N,N-dimethyl-3-(4-(1-(tetrahydro-2H-pyran-4-yl)-[1,2,4]triazolo[4,3-a]quinoxalin-8-yl)phenoxy)propan-1-amine and its Analogues Combined with CPT-11 on the Growth of Human Colon Cancer Cell SW620 were Determined by MTT Assay
(§1) SW620 cells were digested by trypsinase, centrifuged at 800 rpm for 5 minutes, the supernatant was discarded, resuspended with fresh medium (RPMI 1640 medium+10% FBS) and counted. The cells were seeded into 96-well cell culture plate with appropriate cell density and incubated overnight in a 37° C. 5% CO2 incubator. The stock solutions of the tested compound and the reference compound AZD0156 were serially diluted to 8 concentrations by DMSO at the ratios of 1:3 and 1:10, respectively, the first concentration was 10 μM or 1 μM, and the last concentration was negative control of DMSO (0 μM, the final concentration of DMSO was 1%). 5 μL of each concentration was added to 120 μL of medium (25 times diluted) and mixed by shaking. The overnight cells were taken and the culture medium was removed, 195 μL of fresh medium containing 205 nM CPT-11 was added to each well, and 5 μL of diluted medium containing the corresponding concentration of the tested sample was added respectively, and the culture plate was then placed in the 5% CO2 cell culture incubator at 37° C. for 5 days. After removing the original solution, 100 pt of fresh serum-free DMEM medium containing MTT (0.5 mg/mL) was added to each well, the culture was continued. After 4 hours, the original solution was removed, 100 μL of DMSO was added into each well, the 96-well plates were shaken away from light for 10 minutes and placed in a multi-function reader to read the absorbance at the wavelength of 552/630/690 nm. GraphPad Prism 6.0 was used to analyze the data. The inhibitory activity of compounds on cell proliferation was plotted based on cell viability and compound concentration. The IC50 value was fitted by a sigmoidal dose response curve equation Y=100/(1+10^(Log C−Log IC50)), where C was the concentration of compound.
Table 3 summarizes the inhibitory effects of compounds combined with CPT-11 on the growth of human colon cancer cell SW620 (IC50).

[2] = test system: human breast cancer cell MDA-MB-468; experiment: MTT assay, growth of MDA-MB-468 cells; format: cell-based; details: for IC50: 7 days, MTT
Method: Inhibitory Effects of N,N-dimethyl-3-(4-(1-(tetrahydro-2H-pyran-4-yl)-[1,2,4]triazolo[4,3-a]quinoxalin-8-yl)phenoxy)propan-1-amine and its Analogues on the Growth of Human Breast Cancer Cell MDA-MB-468 were Determined by MTT Assay
as §1, with “MDA-MB-468 cells” for “SW620 cells”, “1:10, respectively:” for “1:10, respectively,”, “was 100” for “was 10”, “medium” for “medium containing 205 nM CPT-11”, “for 7 days (On the fourth day, the medium containing drugs was removed and fresh medium containing drugs was added for continuous cultivation).” for “for 5 days.”, “100 μL” for “100 pt”
Table 4 summarizes the inhibitory effects of compounds on the growth of human breast cancer cell MDA-MB-468 (IC50).

ATM enzyme (human) = ATM enzyme (human) (Homo sapiens, UniProt Q13315); experiment: ATM kinase assay (HTRF, GST-cMyc-p53 substrate); format: biochemical; details: for inhibition at 0.01 µM: C 0.01 μm (final concentration of compound); for inhibition at 0.1 µM: C 0.1 μm (final concentration of compound)
Method: In Vitro Inhibition of ATM by N,N-dimethyl-3-(4-(1-(tetrahydro-2H-pyran-4-yl)-[1,2,4]triazolo[4,3-a]quinoxalin-8-yl)phenoxy)propan-1-amine and its Analogues was Determined by ATM Kinase Assay
The reaction was initiated by the addition of a Mg/ATP mixture and incubation for 30 minutes at room temperature, the reaction was quenched by the addition of a stop solution containing EDTA. Finally, the detection buffer containing the d2-labeled anti-GST monoclonal antibody and the europium-labeled anti-phospho p53 (Ser15) antibody was added. The plate was then read in time resolved fluorescence mode and the homogeneous time resolved fluorescence (HTRF) signal was determined according to the equation: HTRF=10000×(Em665nm/Em620nm). Each compound sample was repeated in duplicate. The experiment negative control was all components except of the ATM enzyme and the positive control contained all components. All reactions were quenched by adding EDTA.
ATM kinase inhibition was detected by using the method described above. The curve equation for calculating IC50 value is as follows:
[formula] • wherein, C is the concentration of compound and D is the slope factor.

[3] = Homo sapiens, MDA-MB-468, 168 h
[4] = 0.5 h, read-out: Inh (%) of ATM kinase
[5] = 0.5 h, C 1 μm (final concentration of compound), read-out: Inh (%) of ATM kinase

Sequence of ATM enzyme (human) (Q13315 whole entry): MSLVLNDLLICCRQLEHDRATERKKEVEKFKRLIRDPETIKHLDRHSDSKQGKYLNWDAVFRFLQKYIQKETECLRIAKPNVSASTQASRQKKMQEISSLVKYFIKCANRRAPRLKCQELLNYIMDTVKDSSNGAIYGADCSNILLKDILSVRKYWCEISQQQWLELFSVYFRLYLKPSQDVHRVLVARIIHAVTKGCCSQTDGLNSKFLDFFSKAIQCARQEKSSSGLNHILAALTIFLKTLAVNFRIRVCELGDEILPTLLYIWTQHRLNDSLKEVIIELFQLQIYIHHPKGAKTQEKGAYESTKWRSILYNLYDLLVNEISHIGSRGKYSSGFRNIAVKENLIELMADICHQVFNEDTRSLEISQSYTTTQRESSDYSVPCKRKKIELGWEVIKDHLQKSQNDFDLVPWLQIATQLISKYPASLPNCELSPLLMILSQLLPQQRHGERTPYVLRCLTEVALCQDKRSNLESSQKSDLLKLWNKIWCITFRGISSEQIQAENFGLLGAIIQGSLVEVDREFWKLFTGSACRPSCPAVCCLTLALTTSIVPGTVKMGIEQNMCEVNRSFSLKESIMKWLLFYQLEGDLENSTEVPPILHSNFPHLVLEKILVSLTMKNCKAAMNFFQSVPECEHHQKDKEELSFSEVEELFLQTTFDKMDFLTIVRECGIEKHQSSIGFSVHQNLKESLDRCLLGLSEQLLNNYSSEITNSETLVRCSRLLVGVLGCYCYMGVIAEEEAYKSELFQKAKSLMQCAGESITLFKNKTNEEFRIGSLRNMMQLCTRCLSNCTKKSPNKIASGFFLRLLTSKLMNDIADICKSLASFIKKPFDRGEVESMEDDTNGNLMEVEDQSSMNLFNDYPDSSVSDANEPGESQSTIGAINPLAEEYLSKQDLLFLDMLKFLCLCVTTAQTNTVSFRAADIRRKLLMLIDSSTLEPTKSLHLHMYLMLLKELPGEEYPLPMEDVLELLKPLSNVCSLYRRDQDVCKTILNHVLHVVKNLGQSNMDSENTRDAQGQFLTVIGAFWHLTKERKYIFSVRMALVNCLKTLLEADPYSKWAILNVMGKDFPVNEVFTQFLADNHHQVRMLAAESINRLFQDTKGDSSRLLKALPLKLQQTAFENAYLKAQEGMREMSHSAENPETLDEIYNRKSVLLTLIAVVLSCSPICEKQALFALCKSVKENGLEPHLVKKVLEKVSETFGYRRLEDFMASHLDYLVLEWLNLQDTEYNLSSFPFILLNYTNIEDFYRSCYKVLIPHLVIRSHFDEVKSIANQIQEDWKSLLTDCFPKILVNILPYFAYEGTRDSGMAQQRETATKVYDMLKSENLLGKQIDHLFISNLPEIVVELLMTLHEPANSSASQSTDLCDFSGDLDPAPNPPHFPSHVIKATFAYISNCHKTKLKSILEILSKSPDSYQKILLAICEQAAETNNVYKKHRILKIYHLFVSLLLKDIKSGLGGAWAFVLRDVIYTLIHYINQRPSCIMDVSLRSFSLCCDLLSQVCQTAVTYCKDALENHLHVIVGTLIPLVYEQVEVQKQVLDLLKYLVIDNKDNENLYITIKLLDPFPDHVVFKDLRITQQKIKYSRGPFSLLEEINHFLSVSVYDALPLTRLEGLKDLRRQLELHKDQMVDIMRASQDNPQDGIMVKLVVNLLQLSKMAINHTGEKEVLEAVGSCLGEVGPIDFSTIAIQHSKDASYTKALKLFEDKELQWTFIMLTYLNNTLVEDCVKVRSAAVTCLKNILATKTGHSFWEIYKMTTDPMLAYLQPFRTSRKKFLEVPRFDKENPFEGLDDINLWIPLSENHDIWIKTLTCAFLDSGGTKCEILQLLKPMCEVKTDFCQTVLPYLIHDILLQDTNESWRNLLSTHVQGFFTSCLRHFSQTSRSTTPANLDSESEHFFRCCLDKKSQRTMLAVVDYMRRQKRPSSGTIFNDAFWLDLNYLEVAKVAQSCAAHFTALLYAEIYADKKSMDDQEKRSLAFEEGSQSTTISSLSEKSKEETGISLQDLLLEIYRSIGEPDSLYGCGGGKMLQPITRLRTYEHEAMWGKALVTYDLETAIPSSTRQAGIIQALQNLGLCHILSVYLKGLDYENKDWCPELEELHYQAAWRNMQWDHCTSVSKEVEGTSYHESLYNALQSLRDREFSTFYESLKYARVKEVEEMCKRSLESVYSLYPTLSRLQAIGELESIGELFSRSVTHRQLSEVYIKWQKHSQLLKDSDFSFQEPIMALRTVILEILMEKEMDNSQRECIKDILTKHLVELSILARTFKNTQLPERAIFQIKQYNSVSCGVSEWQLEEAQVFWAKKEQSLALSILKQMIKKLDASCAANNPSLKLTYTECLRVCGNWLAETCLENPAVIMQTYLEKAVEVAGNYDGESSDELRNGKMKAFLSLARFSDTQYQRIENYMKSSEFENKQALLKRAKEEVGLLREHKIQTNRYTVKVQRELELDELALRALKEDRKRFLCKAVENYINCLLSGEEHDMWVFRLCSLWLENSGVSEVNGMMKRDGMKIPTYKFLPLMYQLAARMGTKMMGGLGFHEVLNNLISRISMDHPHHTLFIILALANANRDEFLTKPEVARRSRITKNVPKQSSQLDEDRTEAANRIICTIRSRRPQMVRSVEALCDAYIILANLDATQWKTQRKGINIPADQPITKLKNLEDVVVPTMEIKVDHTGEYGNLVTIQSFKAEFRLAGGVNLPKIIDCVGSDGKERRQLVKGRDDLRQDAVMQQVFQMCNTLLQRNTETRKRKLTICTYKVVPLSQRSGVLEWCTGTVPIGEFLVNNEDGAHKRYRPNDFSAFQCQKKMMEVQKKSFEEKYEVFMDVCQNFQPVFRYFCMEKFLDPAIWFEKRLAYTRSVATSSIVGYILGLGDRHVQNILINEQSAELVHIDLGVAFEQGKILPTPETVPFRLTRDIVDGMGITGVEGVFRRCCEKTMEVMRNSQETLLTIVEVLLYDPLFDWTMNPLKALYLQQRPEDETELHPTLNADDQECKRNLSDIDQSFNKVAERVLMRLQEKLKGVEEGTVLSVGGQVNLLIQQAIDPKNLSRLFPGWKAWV

SMILES | IC50 ([1]; Homo sapiens, SW-620, 120 h) [nM] | IC50 [2, 3] [nM] | inhibition at 0.01 µM (ATM enzyme (human); [4]) [%] | inhibition at 0.1 µM (ATM enzyme (human); [4]) [%] | inhibition at 1 µM (ATM enzyme (human); [5]) [%] | further results
CN(C)CCCOc1ccc(-c2ccc3ncc4c(c3c2)n(C2CCOCC2)c(=O)n4C)cn1 [AZD0156, reference compound] | – | – | – | – | – | IC50 [1]: 10 nM; IC50 [2]: 10.9 nM; Inh (%) of ATM kinase (ATM enzyme (human); C 1 μm (final concentration of compound)): 100%
CN(C)CCCOc1ccc(-c2ccc3ncc4nnc(C5CCOCC5)n4c3c2)cc1 [Example 4, N,N-dimethyl-3-(4-(1-(tetrahydro-2H-pyran-4-yl)-[1,2,4]triazolo[4,3-a]quinoxalin-8-yl)phenoxy)propan-1-amine] | 328 | 950 | – | – | – | IC50 (ATM enzyme (human); 10-concentration dilution series, read-out: IC50, inhibition of ATM kinase): 9 nM; inhibition at 10 µM (ATM enzyme (human); 0.5 h, C 10 μm (final concentration of compound), read-out: Inh (%) of ATM kinase): 100%; inhibitory effect on ATM kinase (in words) (ATM enzyme (human); ATM kinase (human) assay): good inhibitory effect
CN(C)CCCOc1ccc(-c2ccc3ncc4nnc(C5CCOCC5)n4c3c2)nc1 [Example 5, N,N-dimethyl-3-((6-(1-(tetrahydro-2H-pyran-4-yl)-[1,2,4]triazolo[4,3-a]quinoxalin-8-yl)pyridin-3-yl)oxy)propan-1-amine] | > 100000 | > 100000 | 7 | 47 | 96 | –
CN(C)CCCN(C)c1ccc(-c2ccc3ncc4nnc(C5CCOCC5)n4c3c2)cc1 [Example 11, N-(3-(dimethylamino)propyl)-N-methyl-4-(1-(tetrahydro-2H-pyran-4-yl)-[1,2,4]triazolo[4,3-a]quinoxalin-8-yl)aniline] | > 100000 | > 100000 | – | – | 64 | –
CN(C)C1CCN(c2ccc(-c3ccc4ncc5nnc(C6CCOCC6)n5c4c3)cc2)CC1 [Example 12, N,N-dimethyl-1-(4-(1-(tetrahydro-2H-pyran-4-yl)-[1,2,4]triazolo[4,3-a]quinoxalin-8-yl)phenyl)piperidin-4-amine] | 173 | 236 | 50 | 93 | 100 | –
CN(C)C1CCC(c2ccc(-c3ccc4ncc5nnc(C6CCOCC6)n5c4c3)cc2)CC1 (stereo not drawn) [Example 18, N,N-dimethyl-4-(4-(1-(tetrahydro-2H-pyran-4-yl)-[1,2,4]triazolo[4,3-a]quinoxalin-8-yl)phenyl)cyclohexan-1-amine] | > 100000 | > 100000 | – | – | 34 | –
CN(C)CCCOc1ccc(-c2ccc3ncc4nnc(N5CCCCC5)n4c3c2)cc1 [Example 20, N,N-dimethyl-3-(4-(1-(piperidin-1-yl)-[1,2,4]triazolo[4,3-a]quinoxalin-8-yl)phenoxy)propan-1-amine] | 144 | 122 | 79 | 99 | 100 | –
CN(C)CCCOc1ccc(-c2ccc3ncc4nnc(N5CCOCC5)n4c3c2)cc1 [Example 21, N,N-dimethyl-3-(4-(1-morpholino-[1,2,4]triazolo[4,3-a]quinoxalin-8-yl)phenoxy)propan-1-amine] | 334 | 372 | – | – | 100 | –
CN(C)CCCOc1ccc(-c2ccc3ncc4nnc(N5CCN(C)CC5)n4c3c2)cc1 [Example 22, N,N-dimethyl-3-(4-(1-(4-methylpiperazin-1-yl)-[1,2,4]triazolo[4,3-a]quinoxalin-8-yl)phenoxy)propan-1-amine] | 413 | 422 | – | – | 100 | –
C[C@@H]1CN(c2nnc3cnc4ccc(-c5ccc(OCCCN(C)C)cc5)cc4n23)C[C@H](C)N1C [Example 23, N,N-dimethyl-3-(4-(1-((3S,5R)-3,4,5-trimethylpiperazin-1-yl)-[1,2,4]triazolo[4,3-a]quinoxalin-8-yl)phenoxy)propan-1-amine] | 65.1 | 54.1 | 81 | 99 | 100 | inhibitory effect on the growth of SW620 cells (in words) ([1]; MTT assay, combined with CPT-11): inhibited the growth of SW620 cell; inhibitory effect on the growth of MDA-MB-468 cells (in words) ([2]; MTT assay): inhibited the growth of MDA-MB-468 cell; inhibition at 0.001 µM (ATM enzyme (human); 0.5 h, C 0.001 μm (final concentration of compound), read-out: Inh (%) of ATM kinase): 60%
CN(C)CCCOc1ccc(-c2ccc3ncc4nnc(CN5CCOCC5)n4c3c2)cc1 [Example 27, N,N-dimethyl-3-(4-(1-(morpholinomethyl)-[1,2,4]triazolo[4,3-a]quinoxalin-8-yl)phenoxy)propan-1-amine] | 470 | 452 | 43 | 84 | 99 | –
CN(C)CCCOc1ccc(-c2ccc3ncc4nnc(-c5c[nH]cn5)n4c3c2)cc1 [Example 29, N,N-dimethyl-3-(4-(1-(1H-imidazol-4-yl)-[1,2,4]triazolo[4,3-a]quinoxalin-8-yl)phenoxy)propan-1-amine] | 1210 | 860 | 34 | 81 | 97 | –
CN(C)CCCOc1ccc(-c2cc3c(cn2)ncc2nnc(C4CCOCC4)n23)cc1 [Example 30, N,N-dimethyl-3-(4-(1-(tetrahydro-2H-pyran-4-yl)pyrido[3,4-e][1,2,4]triazolo[4,3-a]pyrazin-8-yl)phenoxy)propan-1-amine] | > 10000 | > 10000 | – | – | 14 | –
CN(C)CCCOc1ccc(-c2ccc3ncc4nnc(C5CCOCC5)n4c3n2)cc1 [Example 31, N,N-dimethyl-3-(4-(9-(tetrahydro-2H-pyran-4-yl)pyrido[3,2-e][1,2,4]triazolo[4,3-a]pyrazin-2-yl)phenoxy)propan-1-amine] | 262 | 335 | 51 | 92 | 100 | –
CN(C)C1CCN(c2ccc(-c3ccc4ncc5nnc(N6CCC(N(C)C)CC6)n5c4n3)cc2)CC1 [Example 90, 1-(2-(4-(4-(dimethylamino)piperidin-1-yl)phenyl)pyrido[3,2-e][1,2,4]triazolo[4,3-a]pyrazin-9-yl)-N,N-dimethylpiperidin-4-amine] | 981 | > 10000 | – | – | – | –
